Measurements published in US20090192071A1, “USE OF PHOTODYNAMIC THERAPY TO ENHANCE TREATMENT WITH IMMUNO-MODULATING AGENTS” (DUSA PHARMACEUTICALS, INC., priority 2004, published 2009).

How the values were obtained:
Basal Cell Carcinoma = test: Combination therapy (ALA photodynamic therapy plus imiquimod) in a patient with Basal Cell Carcinoma; type: in vivo; settings: Example 3: ALA topical cream, red light several hours later, then a course of imiquimod
Method: A patient with a Basal Cell Carcinoma is administered ALA in the form of a topical cream, which is applied to the affected areas. Several hours after administration of the ALA, the patient is exposed to an activating red light. Subsequently, the patient is administered a course of imiquimod therapy.

[1] = Combination therapy (ALA photodynamic therapy plus alefacept) in patients with psoriasis; type: in vivo, patient; settings: for alleviation of symptoms: then reduced course of alefacept
[2] = cited from earlier work
[3] = Combination therapy (ALA photodynamic therapy plus imiquimod) in a patient with warts; type: in vivo; settings: Example 7: ALA topical cream, white light several hours later, then reduced course of imiquimod
Method: A patient with warts is administered ALA in the form of a topical cream, which is applied to the affected area. Several hours after administration of the ALA, the patient is exposed to white light. Subsequently, the patient is administered a reduced course of imiquimod therapy.

SMILES: NCC(=O)CCC(=O)O [ALA, 5-Amino-4-oxopentanoic acid]
- resolution of the cancerous lesion (Basal Cell Carcinoma): rapid and complete resolution of the cancerous lesion
- improvement of psoriasis ([1]; Example 1: several patients, topical ALA, then Intense Pulsed Light (IPL), then alefacept as normally done): almost immediate improvements
- return of psoriatic symptoms after cessation of alefacept therapy ([1]; Example 2: topical ALA and blue light after a completed alefacept treatment cycle): less return of their psoriatic symptoms
- alleviation of symptoms ([1]; Example 4: ALA topical cream, activating light several hours later): alleviation of symptoms soon after receiving the treatment
- alleviation of symptoms ([1]; Example 5: ALA i.v. injection, 5 J/cm^2 of 417 nm blue light after one to three hours): alleviation of symptoms soon after receiving the treatment
- alleviation of symptoms ([1]; Example 6: oral ALA, 10 J/cm^2 of 417 nm blue light after one to three hours): alleviation of symptoms soon after receiving the treatment
- solubility in water [2]: water soluble
- alleviation of symptoms [3]: alleviation of symptoms soon after receiving the treatment
